Like-named read-outs stand apart in the source and are kept apart here.
Legend:
stomach of rats = test: Activity in vitro in the stomach of rats; details: rat stomach
ileum of guinea-pigs = test: Guinea pig ileum test in vitro
Protocol: The guinea pig ileum test consisted of a 10 ml thermostatic bath held at 35° C., containing the ileum of a male guinea pig, under 0.5 g traction, carboxygenated in a Tyrode solution; this was left for 30 minutes to stabilize before the compounds were tested. The response was recorded using a isotonic frontal lever, long enough to amplify the response 4.5 times.

uterus of rats = test: Rat uterus test in vitro (oestrogenized rat uteri)
Protocol: The rat uterus test consisted of a 10 ml thermostatic bath held at 29° C., in which oestrogenized rat uteri under 0.5 g traction were carboxygenated in a Dejalon saline solution. The preparation was left to stabilize for 30 minutes before the compounds and the standard were tested. Response was measured using a isotonic frontal lever, long enough to amplify the response 4.5 times.

[1] = test system: stress-induced gastric ulcers; test: Inhibition of stress-induced gastric ulcers in rats (Takagi-Okabe method); type: in vivo, rat; details: anti-ulcer; for ED50: Rattus norvegicus, read-out: ED50 (Fiducial Limits For P=0.05); for Potency Ratio (Fiducial Limits For P=0.05): PGE2 = 1 (conventional value)
Excerpt: (§1) Moreover, the compounds of the present invention are endowed with an excellent anti-ulcer activity as well as with a strong gastric anti-secretory effect, as shown by the following Tables: where the conventional value of 1 is given to the anti-ulcer and anti-secretory activity of PGE2, and where the compounds of the invention are compared also with 13,14-dehydro-PGE2, 16S-methyl-PGE2 and 16(S,R)-methyl-13,14-dehydro-PGE2.
INHIBITION OF STRESS-INDUCED GASTRIC ULCERS IN RATS (*)
(*) The ulcers are induced according to the method of Takagi-Okabe (K.
Takagi et al., Jap. J. Pharmacol., 18, 9 (1968)

gastric secretion = test: Antisecretory activity in rats (Shay method); type: in vivo, rat; details: subcutaneously; for ED50: Rattus norvegicus, sc, read-out: ED50 (Fiducial Limits For P = 0.05); for Potency Ratio (Fiducial Limits For P=0.05): PGE2 = 1 (conventional value)
Excerpt: as §1
ANTISECRETORY ACTIVITY IN RATS (*)
(*) The antisecretory activity was studied according to H. Shay et al.,

[2] = test system: bronchospasm in guinea-pigs; test: Anti-bronchospastic (anti-asthmatic) activity in guinea-pigs (histamine- and anaphylactic shock-induced bronchospasm); parameters: species or system guinea pig; details: in vivo and in vitro in guinea-pigs; for anti-bronchospastic activity: compared with natural PGE2; for anti-bronchospastic activity relative to natural PGE2: histamine- and anaphylactic shock-induced
Protocol: Four hours later, the same animals were treated with a spray of the test compounds at different solutions in saline, and with a spray of standard PGE2 solution. They were then given another histamine spray (0.2%) and again, the times taken for bronchospasm to appear were noted.

Structure (SMILES)	activity in vitro in the stomach of rats (stomach of rats)	activity in vitro in the ileum of guinea-pigs (ileum of guinea-pigs)	spasmogenic activity (uterus of rats)	ED50 ([1]; po, os) [mg/kg]	ED50 ([1]; sc, subcutaneously) [mg/kg]	Potency Ratio (Fiducial Limits For P=0.05) ([1]; os)	Potency Ratio (Fiducial Limits For P=0.05) ([1]; subcutaneously)	ED50 (gastric secretion) [mg/kg]	Potency Ratio (Fiducial Limits For P=0.05) (gastric secretion)	anti-bronchospastic activity [2]	anti-bronchospastic activity relative to natural PGE2 [2]
CCCC[C@H](C)[C@H](O)C#C[C@@H]1[C@H](O)CC(=O)[C@H]1C/C=C\CCCC(=O)O (single isomer, unassigned) [16s-methyl-5c-9-oxo-11α,15S-trihydroxy-8,12-diiso-prost-5-en-13-ynoicacid]	practically devoid of any activity	practically devoid of any activity	excellent spasmogenic activity								
CCCCC[C@H](O)C#C[C@H]1[C@H](O)CC(=O)[C@@H]1C/C=C\CCCC(=O)O [13,14-dehydro-PGE2, reference compound]				0.063	0.043	9.3(4.5-19.0)	4.9(2.4-9.6)	0.055	2.6 (1.4-4.5)		
CCCCC(C)[C@H](O)C#C[C@H]1[C@H](O)CC(=O)[C@@H]1C/C=C\CCCC(=O)O (stereo partly drawn) [16(S,R)-methyl-13,14-dehydro-PGE2, reference compound]				0.0202	0.00341	39.8(17.1-102.1)	30.8(20.4-44.2)	0.0068	28.2 (18.1-41.6)		
CCCC[C@@H](C)[C@@H](O)C#C[C@H]1[C@H](O)CC(=O)[C@@H]1C/C=C\CCCC(=O)O [16R-methyl-13,14-dehydro-15-epi-PGE2, 16r-methyl-5c-9-oxo-11α,15R-dihydroxy-prost-5-en-13-ynoic acid]				0.141	0.0087	7.3(3.1-16.9)	7.4(4.8-11.1)	0.0328	3.8 (2.7-5.5)		
CCCC[C@@H](C)[C@H](O)C#C[C@H]1[C@H](O)CC(=O)[C@@H]1C/C=C\CCCC(=O)O [16R-methyl-13,14-dehydro-PGE2, 16r-methyl-5c-9-oxo-11α,15S-dihydroxy-prost-5-en-13-ynoic acid]				0.0098	0.0015	105.6(46.6-282.6)	43.1(28.4-64.6)	0.0026	48.3 (33.5-71.6)	very good anti-bronchospastic activity	four to six
CCCC[C@H](C)[C@@H](O)C#C[C@H]1[C@H](O)CC(=O)[C@@H]1C/C=C\CCCC(=O)O [16S-methyl-13,14-dehydro-15-epi-PGE2, 16s-methyl-5c-9-oxo-11α,15R-dihydroxy-prost-5-en-13-ynoic acid]				0.22	0.0911	3.8(1.75-8.4)	2.9(1.9-4.5)				
CCCC[C@H](C)[C@H](O)C#C[C@H]1[C@H](O)CC(=O)[C@@H]1C/C=C\CCCC(=O)O [16S-methyl-13,14-dehydro-PGE2, 16S-methyl-5c-9-oxo-11α,15S-dihydroxy-prost-5-en-13-ynoic acid]				0.015	0.0009	42.8(18.8-101.7)	69.8(46.4-105.2)	0.0042	35.7 (20.8-68.9)	very good anti-bronchospastic activity	four to six
CCCC[C@H](C)[C@H](O)/C=C/[C@H]1[C@H](O)CC(=O)[C@@H]1C/C=C\CCCC(=O)O [16S-methyl-PGE2, reference compound]				0.0242	0.0177	39.0(18.9-80.3)	12.8(9.0-17.9)	0.0112	13.5 (7.9-23.7)		
CCCCC[C@H](O)/C=C/[C@H]1[C@H](O)CC(=O)[C@@H]1C/C=C\CCCC(=O)O [PGE2, reference compound]				0.717	0.119			0.155			

Source: US4041064A, “16-Methyl prost-5-en-13-ynoic acid derivatives” (Carlo-Erba S.p.A., priority 1974, dated 1977)
